pEC50: −log10 of the molar value.

The text below walks through data of patent publication US6933308B2 (Bristol-Myers Squibb Company, priority 2002, dated 2005).

For one test, the system named is KCNQ channels. As to the kind of experiment: Thallium flux assay for KCNQ channel openers. Type of test: cell-based. The following applies: HEK-293 cells stably transfected with a KCNQ family member; for Min conc. response: minimal active concentration: lowest concentration giving signal >= 4 SD of negative controls; for pEC50: thallium flux, 10 point concentration series. How it is done:
Thallium Flux Assay for KCNQ Channel Openers.
The thallium assay is a modification of that published by Weaver and is referenced in its entirety (Weaver, C. D. WO 02/31508, 2002).
Approximately 20,000 cells/well of an HEK-293 cell line stably transfected with one of the members of the KCNQ family were plated into clear-bottom, black-walled, poly-D-lysine coated, 384 well assay plates in 20 μl/well of low chloride plating medium. Low chloride plating medium was composed of the following: sodium gluconate, 109 mM; potassium gluconate, 5.4 mM; hemi-calcium gluconate, 3.6 mM; magnesium sulfate, 0.8 mM; sodium bicarbonate, 26.2 mM; sodium phosphate monobasic, 1.2 mM; glutamine, 2 mM; glucose, 5 mM; 4-(2-hydroxyethyl)-1-piperazineethanesulfonic acid (HEPES) (pH 7.3) 10 mM, MEM vitamin solution (10× concentration of vitamins, Gibco/LifeTechnologies 11120-052) and MEM amino acid solution (1× concentration of amino acids, Gibco/LifeTechnologies 11130-051).
Following overnight incubation in a 5% CO2 incubator at 37° C., the cells in the plates were loaded with 20 μl/well of a dye loading solution containing the commercially available thallium-sensitive fluorescent dye BTC-AM, the acetomethoxy ester of BTC (see U.S. Pat. No. 5,501,980) (2 μM) and pluronic acid F-127 (Molecular Probes P 6867) (0.02% w/v) in chloride free assay buffer. Chloride free assay buffer was composed of the following: sodium gluconate, 140 mM; potassium gluconate, 2.5 mM; hemi-calcium gluconate, 6 mM; hemi-magnesium gluconate, 2 mM; glucose, 5 mM; HEPES (pH 7.3), 10 mM.
Following incubation in the dye loading solution for from 45-90 min at room temperature, the dye loading solution was removed by aspiration and replaced with 40 μl/well of chloride free assay buffer.
Prior to addition to cell plates, test compound and standard compounds were dissolved in DMSO to 3 mM concentration. Compounds were then diluted from the 3 mM stock to 100-fold over the final assay concentration in DMSO. Finally, compounds in DMSO were diluted from 100-fold over the final assay concentration to 5-fold over the final assay concentration in chloride free assay buffer.
Ten μl/well of compounds at 5-fold over the final assay concentration were then added to the cell plates. This represents a 1:5 dilution, yielding the final test concentration. The wells used for test compounds were A1-P20. Wells A21-P22 contained a standard opener and a maximally efficacious concentration (positive control). Wells A23-P24 contained chloride free assay buffer containing 1% DMSO (negative control).
Following addition of test compounds, the plates were loaded onto the Molecular Devices FLIPR. The 488 nm line of the argon laser was used to excite the BTC and the emission filter was a 540(+/−30) nm. Images were collected at 1 Hz. Ten seconds of baseline were collected and then the FLIPR was used to add 13 μl/well of a stimulus buffer composed of 7.5 mM Tl2SO4 in chloride free assay buffer. Images were collected for an additional 60 seconds.
For data analysis, the amplitude of the average of the negative controls was subtracted from all wells. The amplitudes of the test compounds were then compared to the value of four standard deviations of the negative control wells. The lowest concentration of a test compound sufficient to generate a signal amplitude greater than or equal to four standard deviations from the amplitude of the negative controls was defined as the minimal active concentration.
For generating EC50 values, compounds were serially diluted in 1:3 volume increments to produce a 10 point concentration series. EC50 values were calculated by fitting the resulting amplitudes to a single-site logistic equation. EC50 was defined as the concentration of test compound required to yield 50% of the maximal response. Maximal response (Maximal opening) was the largest signal amplitude divided by the negative control amplitude generated by any concentration of a test compound. […]

The target in the next test is T1, mKCNQ2 channels (Mus musculus, UniProt Q9Z351).
T1 construct: expressed in transfected cells
As to the kind of experiment: KCNQ whole-cell patch-clamp. Type of test: cell-based. The following applies: for verified in a patch-clamp assay measuring the effect of compounds on the current of KCNQ channels: HEK 293 cells expressing mKCNQ2; for pEC50: HEK 293 stable cell line expressing mKCNQ2, steady-state current at end of 600 ms step from holding potential -80 mV. How it is done:
Examples 8 and 11 were verified in a patch-clamp assay measuring the effect of compounds on the current of KCNQ channels.
KCNQ Patch-clamp. Whole-cell patch-clamp recordings were made from an HEK 293 stable cell line expressing mKCNQ2 channels, maintained in culture for 1-2 days. Patch pipettes had initial resistances of 2.5-4 MΩ. Currents were recorded with an EPC-9 amplifier (HEKA, Lambrecht, Germany) controlled with software (Pulse, HEKA) run on a standard lab PC. Series resistance compensation was used during current recording, and set at 80%. The series resistance (R) and cell capacitance (C) were determined electronically by subtracting the capacitive currents at the onset and offset of a 5 mV voltage step. The cancellation of whole-cell capacitive transients was virtually complete in all cells. Analog current signals were low-pass filtered at 2.9 kHz using a four-pole Bessel filter −3 dB) and stored on a local network server computer at a sampling rate of 1.5 kHz. All recordings were performed at room temperature (20-22° C.). The pipette solution contained (mM):KCl, 150; CaCl2, 2.5; EGTA, 5; MgCl2, 1; HEPES, 10; pH to 7.3 with KOH, and Osmolality of 290-300 mOsm. The extracellular solution contained (mM): NaCl, 140; KCl, 2.5; CaCl2, 2.5; MgCl2, 1; glucose, 10; HEPES, 10; pH to 7.3 with NaOH, and Osmolality of […].
Concentration response data were generated by measuring the difference in the steady-state amplitude of current in the presence of compound at the end of a 600 ms voltage-clamp step from a holding potential of −80 mV. The concentration-response data were fitted with Hill-type equations: I=Imax/(1+EC50/[A]^nH), where I is the steady-state current at a given concentration of agonist [A]; and Imax, EC50 and nH are parameters estimated from the curve fit. In some cases the concentration-response data were fitted with equations consisting of the sum of two Hill-type components. Current-voltage (I/V) relationships for agonist-evoked currents were obtained by performing 600 ms voltage steps (−110 mV to +40 mV) in the absence and presence of agonist.

Turning to `CC(NC(=O)c1sc(CCN2CCOCC2)nc1C(F)(F)F)c1cccc(-c2cccnc2)c1` (centres unmarked) [Example 8], in the test with KCNQ channels, the Min conc. response is 10 µM and the pEC50 was 4.70 to 6.00. The “verified in a patch-clamp assay measuring the effect of compounds on the current of KCNQ channels” value at mKCNQ2 channels is “verified”. In the test with KCNQ channels, `C[C@H](NC(=O)c1sc(CCN(C)Cc2ccco2)nc1C(F)(F)F)c1cccc(N2CCOCC2)c1` [Example 11, 2-[2-[(2-furanylmethyl)methylamino]ethyl]-N-[1-[3-(4-morpholinyl)phenyl]ethyl]-4-(trifluoromethyl)-5-thiazolecarboxamide] showed a Min conc. response of 30 µM and a negative-log EC50 (pEC50) of 4.70 to 6.00. Besides, on mKCNQ2 channels, the “verified in a patch-clamp assay measuring the effect of compounds on the current of KCNQ channels” value is “verified”. In the test on KCNQ channels, `CCN(CC)CCc1nc(C(F)(F)F)c(C(=O)NC(C)c2cccc(OC(F)(F)F)c2)s1` (centres unmarked) [Example 15] had a Min conc. response of 0.3 µM and a pEC50 of 6.00 to 7.30. In addition, the pEC50 at mKCNQ2 channels is 5.45. In the test with KCNQ channels, `CC(NC(=O)c1sc(CCN2CCSCC2)nc1C(F)(F)F)c1cccc(C(F)(F)F)c1` (centres unmarked) [Example 18, 2-[2-(4-thiomorpholinyl)ethyl]-4-(trifluoromethyl)-N-[1-[3-(trifluoromethyl)phenyl]ethyl]-5-thiazolecarboxamide] showed a Min conc. response of 3 µM and a pEC50 of 6.00 to 7.30. At mKCNQ2 channels, the pEC50 was 5.91. As to `CC(NC(=O)c1sc(C(O)CN2CCCC2)nc1C(F)(F)F)c1cccc(OC(F)(F)F)c1` (centres unmarked) [Example 57, 2-[1-hydroxy-2-(1-pyrrolidinyl)ethyl]-N-[1-[3-(trifluoromethoxy)phenyl]ethyl]-4-(trifluoromethyl)-5-thiazolecarboxamide], the Min conc. response with KCNQ channels was 3 µM. `CC(NC(=O)c1sc(C(O)CN2CCCC2)nc1C(F)(F)F)c1cccc(N(C)C)c1` (centres unmarked) [Example 58, N-[1-[3-(dimethylamino)phenyl]ethyl]-2-[1-hydroxy-2-(1-pyrrolidinyl)ethyl]-4-(trifluoromethyl)-5-thiazolecarboxamide] yielded a Min conc. response in the test on KCNQ channels of 0.3 µM.

In the case of `C[C@H](NC(=O)c1sc(C(O)CN2CCCC2)nc1C(F)(F)F)c1cccc(N2CCOCC2)c1` (stereo partly drawn) [Example 59, 2-[1-hydroxy-2-(1-pyrrolidinyl)ethyl]-N-[(1S)-1-[3-(4-morpholinyl)phenyl]ethyl]-4-(trifluoromethyl)-5-thiazolecarboxamide], the Min conc. response with KCNQ channels stood at 30 µM. In the case of `CCCN(CC1CC1)CC(O)c1nc(C(F)(F)F)c(C(=O)NC(C)c2cccc(C(F)(F)F)c2)s1` (centres unmarked) [Example 60, 2-[2-[(cyclopropylmethyl)propylamino]-1-hydroxyethyl]-4-(trifluoromethyl)-N-[1-[3-(trifluoromethyl)phenyl]ethyl]-5-thiazolecarboxamide], the Min conc. response in the test with KCNQ channels stood at 3 µM. In the case of `CC(=O)N1CCN(CC(O)c2nc(C(F)(F)F)c(C(=O)NC(C)c3cccc(C(F)(F)F)c3)s2)CC1` (centres unmarked) [Example 61, 2-[2-(4-acetyl-1-piperazinyl)-1-hydroxyethyl]-4-(trifluoromethyl)-N-[1-[3-(trifluoromethyl)phenyl]ethyl]-5-thiazolecarboxamide], the Min conc. response with KCNQ channels was 10 µM.
